Laboratory results published in patent publication US20200223889A1, “Bicyclic Compounds Capable of Binding to Melanocortin 4 Receptor” (Novo Nordisk A/S, priority 2017, published 2020).
Read-outs that look alike come from different tables or passages of the source. Starred links: 1 amine or outer side, 2 acyl side, 3 side chain; linkers in the order of their positions; H or OH if unused. Positions of bridges follow the written chain, without caps; N, C: chain ends. Non-standard residues stand in square brackets, D forms with d. Residues, ends and D or L forms follow the SMILES beside them. Hyp = O=C(O)[C@@H]1C[C@@H](O)CN1; Agp = N=C(N)NC[C@H](N)C(=O)O; Api = NC1(C(=O)O)CCNCC1; Ac4c = NC1(C(=O)O)CCC1; Aib = CC(C)(N)C(=O)O; CH2 = C([*:1])[*:2]; βAla = NCCC(=O)O

How the values were obtained:
human MC4R [1] = molecular target: T1, human MC4R (Homo sapiens, UniProt P32245); experiment: 125NDP-α-MSH competitive binding to membranes of BHK cells expressing human MC4 receptor (filtration assay)
T1 construct: expressed in transfected cells
T1 sequence (P32245 whole entry): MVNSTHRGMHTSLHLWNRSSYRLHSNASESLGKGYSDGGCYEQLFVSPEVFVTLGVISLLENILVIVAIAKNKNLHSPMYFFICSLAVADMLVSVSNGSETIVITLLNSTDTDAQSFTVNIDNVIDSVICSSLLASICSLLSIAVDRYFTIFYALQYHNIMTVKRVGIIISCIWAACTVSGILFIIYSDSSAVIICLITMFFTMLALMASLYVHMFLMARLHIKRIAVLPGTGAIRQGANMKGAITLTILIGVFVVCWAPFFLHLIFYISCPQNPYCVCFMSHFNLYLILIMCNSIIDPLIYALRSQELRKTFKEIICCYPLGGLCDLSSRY
Method: In Vitro ^125NDP-α-MSH Binding to Recombinant BHK Cells Expressing Human MC4 Receptor (Filtration Assay)
In order to assess the binding affinity of the selected compounds for the human MC4R competitive binding assays was performed with radiolabeled NDP-alpha MSH (^125NDP-α-MSH).
The assay was performed in 96-well filterplates (Unifilter) using BHK cells stably expressing the human MC4 receptor.
The BHK cell membranes were prepared from frozen or fresh cells that were homogenized in 20 mM HEPES pH 7.1, 5 mM MgCl2, 1 mg/ml bacitracin (buffer 1) and centrifuged at 15000 rpm at 4° C., 10 min in a Sorvall RC 5B plus, SS-34 rotor. The supernatant was discarded, and the pellets were re-suspended in buffer 1, homogenized and centrifuged two more times. The final pellets were re-suspended in buffer 1 and the protein concentration was measured and adjusted with buffer 1 to 5 mg/ml and the membrane preparation was kept at −80° C. until assay. The assay was run on a dilution of this cell membrane suspension without any further preparation. The suspension was diluted to give maximally 10% specific binding, i.e. to approx. 50-100 fold dilution, optimized after each membrane preparation. The assay was performed in a total volume of 200 μl: 50 μl of cell suspension, 50 μl of ^125NDP-α-MSH (apx. […] in final concentration), 50 μl of test compound and 50 μl binding buffer were mixed and incubated for 2 h at 25° C. (binding buffer: 25 mM HEPES, pH 7.0, 1 mM CaCl2), 1 mM MgSO4, 1 mM EGTA, 0.005% Tween™ 20 and 0.1% HSA or, alternatively, 0.1% ovalbumin (Sigma; catalogue No. A-5503)). Test compounds were dissolved in 100% DMSO and diluted in binding buffer in a dose range from 1 μM to 0.001 nM. Radiolabelled ligand and membranes were diluted in binding buffer. The incubation was stopped by dilution with 8×100 μl ice-cold 0.9% NaCl. The radioactivity retained on the filters was counted using a Packard Topcounter. The data were analysed by non-linear regression analysis of binding curves, using the Windows™ program GraphPad™ Prism (GraphPad Software, USA).

human MC4R [2] = molecular target: T1, human MC4R; experiment: Functional cAMP assay (CisBio HTRF) in BHK cells expressing human MC4R; type: cell-based; details: for MC1R/MC4R cAMP EC50 ratio: MC1R cAMP EC50 divided by MC4R cAMP EC50
Method: In order to assess the potency of the compounds on human MC1R and human MC4R cAMP signalling was measured.
cAMP induction was measured by c-AMPdynamic2 assay, HTRF 62AM4PEC system from CisBio for the human MC1R and human MC4R according to the protocol provided by the vendor. BHK cells expressing the human MC1 or MC4 receptor were generated by stable transfection with expression vectors encoding the cDNA of either MC1R or MC4R.
In details; 25 μl compound—or standard solution were added in the respective wells. Compound was reconstituted in buffer (DMEM w/o phenol red, 10 mM
Hepes, lx Glutamine, 0.1% OV-albumin1, 1 mM IBMX) and serially diluted starting at 2 μM, 10-fold seven times. Dilutions were carried out in the same aforementioned buffer to the desired working concentration ranges (2× higher than the final concentration). 25 μl cell solution was then added and allowed to incubate for 30 min while lightly shaking, at 25° C. […] The provided components for the assay were reconstituted according to the CisBio assay protocol “3.1 supplied reagents and preparation procedure” in MilliQ purification system H2O and diluted 1:20 in lysis buffer. 25 μl cAMP-d2 and 25 μl Cryptate conjugate were added to all wells.
Plates were centrifuged at 1500 rpm for 30 sec and incubated for 1 h, lightly shaking, at 25° C. in a hotel stacker. The plates were read on Mithras LB 940 provided by Berthold Technologies The data were analysed by non-linear regression analysis of binding curves, using the Windows™ program GraphPad™ Prism (GraphPad Software, USA).
The latter is used when no full curve can be obtained in the concentration ranges indicated above.

[3] = human MC4R, BHK cell membranes, 125NDP-α-MSH radioligand, read-out: MC4R binding Ki
[4] = BHK cells expressing human MC4R, '>' = highest dose used with no response, read-out: MC4R cAMP EC50

Row | Compound | Ki (human MC4R [1]; [3]) | EC50 (human MC4R [2]; [4]) | MC1R/MC4R cAMP EC50 ratio (human MC4R [2]) | Ki (human MC4R [1]) | EC50 (human MC4R [2])
1 | C[C@@H]1NC(=O)[C@@H]2CSSC[C@H](NC(=O)[C@H](Cc3c[nH]c4ccccc34)NC(=O)[C@H](CCCCN)NC(=O)[C@@H](Cc3ccccc3)NC(=O)[C@H](Cc3c[nH]cn3)NC1=O)C(=O)N[C@@H](C)C(=O)N[C@@H](Cc1c[nH]cn1)C(=O)N[C@H](Cc1ccccc1)C(=O)N[C@@H](CCCCN)C(=O)N[C@@H](Cc1c[nH]c3ccccc13)C(=O)N2 [Chem. 15, c[c[Cys-Ala-His-D-Phe-Lys-Trp-Cys]- Ala-His-D-Phe-Lys-Trp]] (cyclo(AH[dF]KWCAH[dF]KWC); disulfide 6-12) | 0.12 nM | 0.09 nM | 60 | – | –
2 | C[C@@H]1NC(=O)[C@@H]2CSSC[C@H](NC(=O)[C@H](Cc3c[nH]c4ccccc34)NC(=O)[C@H](CCCCN(C)C)NC(=O)[C@@H](Cc3ccccc3)NC(=O)[C@H](Cc3c[nH]cn3)NC1=O)C(=O)N[C@@H](C)C(=O)N[C@@H](Cc1c[nH]cn1)C(=O)N[C@H](Cc1ccccc1)C(=O)N[C@@H](CCCCN(C)C)C(=O)N[C@@H](Cc1c[nH]c3ccccc13)C(=O)N2 [Chem. 18, c[c[Cys-Ala-His-D-Phe-Lys(Me)2-Trp- Cys]-Ala-His-D-Phe-Lys(Me)2-Trp]] | 0.38 nM | 0.12 nM | 35 | – | –
3 | N=C(N)NCCC[C@@H]1NC(=O)[C@@H](Cc2ccccc2)NC(=O)[C@H](Cc2c[nH]cn2)NC(=O)C2(CCC2)NC(=O)[C@@H]2CSSC[C@H](NC(=O)[C@H](Cc3c[nH]c4ccccc34)NC1=O)C(=O)NC1(CCC1)C(=O)N[C@@H](Cc1c[nH]cn1)C(=O)N[C@H](Cc1ccccc1)C(=O)N[C@@H](CCCNC(=N)N)C(=O)N[C@@H](Cc1c[nH]c3ccccc13)C(=O)N2 [Chem. 20, c[c[Cys-ACBC-His-D-Phe-Arg-Trp- Cys]-ACBC-His-D-Phe-Arg-Trp]] (cyclo([Ac4c]H[dF]RWC[Ac4c]H[dF]RWC); disulfide 6-12) | – | – | 124 | 0.15 nM | 0.04 nM
4 | N=C(N)NCCC[C@@H]1NC(=O)[C@@H](Cc2ccccc2)NC(=O)[C@H](Cc2c[nH]cn2)NC(=O)CCNC(=O)[C@@H]2CSSC[C@H](NC(=O)[C@H](Cc3c[nH]c4ccccc34)NC1=O)C(=O)NCCC(=O)N[C@@H](Cc1c[nH]cn1)C(=O)N[C@H](Cc1ccccc1)C(=O)N[C@@H](CCCNC(=N)N)C(=O)N[C@@H](Cc1c[nH]c3ccccc13)C(=O)N2 [Chem. 25, c[c[Cys-βAla-His-D-Phe-Arg-Trp- Cys]-βAla-His-D-Phe-Arg-Trp]] (cyclo(C[βAla]H[dF]RWC[βAla]H[dF]RW); disulfide 1-7) | 0.04 nM | 0.02 nM | 17 | – | –
5 | N=C(N)NCCC[C@@H]1NC(=O)[C@@H](Cc2ccccc2)NC(=O)[C@@H]2C[C@@H](O)CN2C(=O)[C@@H]2CSCSC[C@H](NC(=O)[C@H](Cc3c[nH]c4ccccc34)NC1=O)C(=O)N1C[C@H](O)C[C@H]1C(=O)N[C@H](Cc1ccccc1)C(=O)N[C@@H](CCCNC(=N)N)C(=O)N[C@@H](Cc1c[nH]c3ccccc13)C(=O)N2 [Chem. 26, c[c[Cys-Hyp-D-Phe-Arg-Trp-Cys]- Hyp-D-Phe-Arg-Trp]] (cyclo(C[Hyp][dF]RWC[Hyp][dF]RW); linker 1-6 via CH2) | 0.44 nM | – | 96 | – | –
6 | N=C(N)NCCC[C@@H]1NC(=O)[C@@H](Cc2ccccc2)NC(=O)[C@H](Cc2c[nH]cn2)NC(=O)[C@@H]2CCCN2C(=O)[C@@H]2CSSC[C@H](NC(=O)[C@H](Cc3c[nH]c4ccccc34)NC1=O)C(=O)N1CCC[C@H]1C(=O)N[C@@H](Cc1c[nH]cn1)C(=O)N[C@H](Cc1ccccc1)C(=O)N[C@@H](CCCNC(=N)N)C(=O)N[C@@H](Cc1c[nH]c3ccccc13)C(=O)N2 [Chem. 30, c[c[Cys-Pro-His-D-Phe-Arg-Trp-Cys]- Pro-His-D-Phe-Arg-Trp]] (cyclo(CPH[dF]RWCPH[dF]RW); disulfide 1-7) | 0.09 nM | 0.03 nM | 5 | – | –
7 | CC(C)[C@H]1NC(=O)[C@@H]2CSSC[C@H](NC(=O)[C@H](Cc3c[nH]c4ccccc34)NC(=O)[C@H](CCCNC(=N)N)NC(=O)[C@@H](Cc3ccccc3)NC(=O)[C@H](Cc3c[nH]cn3)NC1=O)C(=O)N[C@H](C(C)C)C(=O)N[C@@H](Cc1c[nH]cn1)C(=O)N[C@H](Cc1ccccc1)C(=O)N[C@@H](CCCNC(=N)N)C(=O)N[C@@H](Cc1c[nH]c3ccccc13)C(=O)N2 [Chem. 34, c[c[Cys-D-Val-His-D-Phe-Arg-Trp- Cys]-D-Val-His-D-Phe-Arg-Trp]] (cyclo(C[dV]H[dF]RWC[dV]H[dF]RW); disulfide 1-7) | 0.88 nM | 0.12 nM | 22 | – | –
8 | CC(C)[C@@H]1NC(=O)[C@@H]2CSSC[C@H](NC(=O)[C@H](Cc3c[nH]c4ccccc34)NC(=O)[C@H](CCCNC(=N)N)NC(=O)[C@@H](Cc3ccccc3)NC(=O)[C@H](Cc3c[nH]cn3)NC1=O)C(=O)N[C@@H](C(C)C)C(=O)N[C@@H](Cc1c[nH]cn1)C(=O)N[C@H](Cc1ccccc1)C(=O)N[C@@H](CCCNC(=N)N)C(=O)N[C@@H](Cc1c[nH]c3ccccc13)C(=O)N2 [Chem. 36, c[c[Cys-Val-His-D-Phe-Arg-Trp-Cys]- Val-His-D-Phe-Arg-Trp]] (cyclo(CVH[dF]RWCVH[dF]RW); disulfide 1-7) | 0.12 nM | 0.04 nM | 26 | – | –
9 | CC1(C)NC(=O)[C@@H]2CSSC[C@H](NC(=O)[C@H](Cc3c[nH]c4ccccc34)NC(=O)[C@H](CCCCN)NC(=O)[C@@H](Cc3ccccc3)NC(=O)[C@H](Cc3c[nH]cn3)NC1=O)C(=O)NC(C)(C)C(=O)N[C@@H](Cc1c[nH]cn1)C(=O)N[C@H](Cc1ccccc1)C(=O)N[C@@H](CCCCN)C(=O)N[C@@H](Cc1c[nH]c3ccccc13)C(=O)N2 [Chem. 40, c[c[Cys-Aib-His-D-Phe-Lys-Trp-Cys]- Aib-His-D-Phe-Lys-Trp]] (cyclo([Aib]H[dF]KWC[Aib]H[dF]KWC); disulfide 6-12) | 0.31 nM | 0.29 nM | 38 | – | –
10 | CC1(C)NC(=O)[C@@H]2CSSC[C@H](NC(=O)[C@H](Cc3c[nH]c4ccccc34)NC(=O)[C@H](CNC(=N)N)NC(=O)[C@@H](Cc3ccccc3)NC(=O)[C@H](Cc3c[nH]cn3)NC1=O)C(=O)NC(C)(C)C(=O)N[C@@H](Cc1c[nH]cn1)C(=O)N[C@H](Cc1ccccc1)C(=O)N[C@@H](CNC(=N)N)C(=O)N[C@@H](Cc1c[nH]c3ccccc13)C(=O)N2 [Chem. 43, c[c[Cys-Aib-His-D-Phe-AGP-Trp- Cys]-Aib-His-D-Phe-AGP-Trp]] (cyclo([Agp]WC[Aib]H[dF][Agp]WC[Aib]H[dF]); disulfide 3-9) | 2.61 nM | 0.44 nM | 107 | – | –
11 | N=C(N)NCCC[C@@H]1NC(=O)[C@@H](Cc2ccccc2)NC(=O)[C@H](Cc2c[nH]cn2)NC(=O)C2(CCNCC2)NC(=O)[C@@H]2CSSC[C@H](NC(=O)[C@H](Cc3c[nH]c4ccccc34)NC1=O)C(=O)NC1(CCNCC1)C(=O)N[C@@H](Cc1c[nH]cn1)C(=O)N[C@H](Cc1ccccc1)C(=O)N[C@@H](CCCNC(=N)N)C(=O)N[C@@H](Cc1c[nH]c3ccccc13)C(=O)N2 [Chem. 47, c[c[Cys-ACP-His-D-Phe-Arg-Trp- Cys]-ACP-His-D-Phe-Arg-Trp]] (cyclo([Api]H[dF]RWC[Api]H[dF]RWC); disulfide 6-12) | – | – | 23 | 0.72 nM | 0.12 nM
